According to patent US9274101B2 (BIOLOG, Inc., priority 2001, dated 2016):
Where a SMILES comes first, the peptide text is derived from it.

Tests used:
E. coli MG1655 = format: cell-based, Escherichia coli
ten strains of E. coli = format: cell-based, Escherichia coli

Compound | suitability as nitrogen source (growth, purple color) (E. coli MG1655) | carbon source utilization (ten strains of E. coli) | carbon source utilization (text) (ten strains of E. coli)
NCCO [2-amino ethanol] | not suitable | − | 
Nc1ncnc2c1ncn2[C@@H]1O[C@H](CO)[C@@H](O)[C@H]1O [Adenosine] | not suitable | + | 
C[C@@H](N)C(=O)O [D-alanine] | positive | + | 
N[C@H](CC(=O)O)C(=O)O [D-aspartic acid] | not suitable | − | 
N[C@H](CO)C(=O)O [D-serine] | not suitable | + and − | 
NC(=O)[C@@H](O)[C@@H](O)[C@H](O)[C@@H](O)C=O [Glucuronamide] | not suitable | + | 
NCC(=O)N[C@@H](CCC(=O)O)C(=O)O [Glycyl-L-glutamic acid] (H-Gly-Glu-OH) | positive | + | 
C[C@H](N)C(=O)O [L-alanine] | not suitable | + | 
C[C@H](N)C(=O)NCC(=O)O [L-alanyl-glycine] (H-Ala-Gly-OH) | positive | + | 
N[C@@H](CC(=O)O)C(=O)O [L-aspartic acid] | positive | + and − | 
N[C@@H](CCC(=O)O)C(=O)O [L-glutamic acid] | positive | + and − | negative
O=C(O)[C@@H]1CCCN1 [L-proline] | positive | + and − | negative
N[C@@H](CO)C(=O)O [L-serine] | not suitable | + | 
C[C@@H](O)[C@H](N)C(=O)O [L-threonine] | not suitable | + and − | negative
CC(=O)N[C@H]1C(O)O[C@H](CO)[C@@H](O)[C@@H]1O (stereo partly drawn) [N-acetyl-D-glucosamine] | positive | + | 
CC(=O)N[C@H]1[C@@H](O)[C@H](O)[C@@H](CO)O[C@H]1O [N-acetyl-β-D-mannosamine] | not suitable | + and − | 
NCCc1ccccc1 [Phenylethyl amine] | not suitable | − | 
NCCc1ccc(O)cc1 [Tyramine] | not suitable | − | 
NCCCCCC(=O)O [ε-amino-n-caproic acid] | not suitable |  | 
